{"source": "patent US8592181B2", "about": "“Brazzein variant having higher sweetness and method for preparing multi-variant” (Chung-Ang University Industry-Academy Cooperation Foundation, priority 2009, dated 2013)", "key": {"sweetness": {"system": "sweetness", "conditions": "cited from earlier work; for Sweetness relative to sugar (sucrose): related art"}, "[1]": {"conditions": "cited from earlier work; for Thermal stability: related art"}, "human sense of taste": {"system": "human sense of taste", "test": "Sweetness measured by human sense of taste (20 trained subjects, minimum concentration at which sweetness is first sensed)", "type": "in vivo", "conditions": "for Minimum stimulation level in which one senses sweetness for first time / Multiples of increased sweetness to minor-type brazzein: primary brazzein variants; for Minimum stimulation level in which one senses sweetness for first time: 20 trained subjects; for Sweetness ratios of sucrose (1 g/100 ml) to primary brazzein variants (minor-type brazzein: 2000): relative to 1 g/100 ml sucrose threshold; for Multiples of increased sweetness to minor-type brazzein: relative to minor-type brazzein", "method": "Since the recombinant brazzein according to the present invention is not a sucrose-based compound having a cyclic ring, the sweetness of the recombinant brazzein was not measured using a saccharometer. Therefore, the activity of the recombinant brazzein was measured using the human sense of taste. Sugar content measurement was performed on 20 subjects who were trained to feel substantially the same minimum concentration of sucrose in which they could sense sweetness using a sucrose solution. That is, a concentration of each brazzein variant in which the subjects could sense sweetness for the first time was measured. Also, a sweetness ratio of the sucrose solution to the wild-type brazzein was 1 g/100 ml, which was a minimum stimulation level in which the subjects could sense sweetness. Also, a sweetness ratio of the minor-type brazzein protein to the wild-type brazzein was 500 μg/100 ml, which was a minimum stimulation level in which the subjects could sense sweetness. Therefore, the sweetness was calculated using the sweetness ratios (That is, 1/0.0005=2000 for the minor-type brazzein).\nAlso, the brazzein multi-variants were measured for activity (sweetness) in the same manner as in Example 3-1."}, "[2]": {"test": "Thermal stability: heated at 80° C. for 4 hours in 50 mM Tris-HCl (pH 8.0), sweetness change level measured by the 20 subjects", "type": "physicochemical", "conditions": "primary variants", "method": "On the basis of the results measured in Example 3-1, 100 mg of each of the brazzein variants having high sweetness, that is, brazzein(H30K) set forth in SEQ ID NO: 99, brazzein(H30R) set forth in SEQ ID NO: 100, brazzein(E35D) set forth in SEQ ID NO: 109, brazzein(E40A) set forth in SEQ ID NO: 113, brazzein(E40A) set forth in SEQ ID NO: 113, brazzein(E40D) set forth in SEQ ID NO: 114, brazzein(E40K) set forth in SEQ ID NO: 115, brazzein(E40H) set forth in SEQ ID NO: 116 and brazzein(E40R) set forth in SEQ ID NO: 117, was dissolved in a 50 mM Tris-HCl (pH 8.0) solution, and heated at 80° C. for 4 hours. Based on the sweetness measured before the heat treatment of the respective primary brazzein variants, a sweetness change level of each primary brazzein variant was then measured by the 20 subjects in the same manner as in Example 3-1.\nAlso, the brazzein multi-variants were measured for thermal stability in the same manner as in Example 3-2. […] From the high performance liquid chromatography analysis of the quaternary variants out of the brazzein multi-variants, it was confirmed that the quaternary variants maintained their constant thermal stability in spite of the fact that the quaternary variants had different structural properties than the minor-type brazzein protein."}}, "note": "Where no end group is shown, it is not given here."}
{"molecule": "O=C1NS(=O)(=O)c2ccccc21", "note": "[saccharin]", "values": [{"measurement": "Sweetness relative to sugar (sucrose)", "setting": "sweetness", "result": "approximately 500 times"}]}
{"molecule": "C=C1C[C@@]23CC[C@H]4[C@@](C)(CCC[C@@]4(C)C(=O)O[C@@H]4O[C@H](CO)[C@@H](O)[C@H](O)[C@H]4O)[C@@H]2CC[C@]1(O[C@@H]1O[C@H](CO)[C@@H](O)[C@H](O)[C@H]1O[C@@H]1O[C@H](CO)[C@@H](O)[C@H](O)[C@H]1O)C3", "note": "[stevioside]", "values": [{"measurement": "Sweetness relative to sugar (sucrose)", "setting": "sweetness", "result": 200, "unit": "times"}]}
{"molecule": "Brazzein: sweetener protein extracted from the fruit of Pentadiplandra brazzeana (Baillon) (QDKCKKVYENYPVSKCQLANQCNYDCKLDKHARSGECFYDEKRNLQCICDYCEY; UniProt P56552 1-54, looked up)", "values": [{"measurement": "Solubility and pH stability in water", "setting": "[1]; Gao et al. 1999", "result": "very high"}, {"measurement": "Thermal stability", "setting": "[1]", "result": "very high"}]}
{"molecule": "E40D: primary brazzein variant: Glu at position 40 of minor-type brazzein substituted with Asp (DKCKKVYENYPVSKCQLANQCNYDCKLRKHARSGECFYDDKRNLQCICDYCEY; Brazzein(E40D)) [Brazzein E40D]", "values": [{"measurement": "Minimum stimulation level in which one senses sweetness for first time", "setting": "human sense of taste", "result": 150, "unit": "μg/100 ml"}, {"measurement": "Sweetness ratios of sucrose (1 g/100 ml) to primary brazzein variants (minor-type brazzein: 2000)", "setting": "human sense of taste", "result": "6,600"}, {"measurement": "Thermal stability (relative activity after heat treatment)", "setting": "[2]", "result": "maintained their thermal stabilities"}]}
{"molecule": "E40K: primary brazzein variant: Glu at position 40 of minor-type brazzein substituted with Lys (DKCKKVYENYPVSKCQLANQCNYDCKLRKHARSGECFYDKKRNLQCICDYCEY; Brazzein(E40K)) [Brazzein E40K]", "values": [{"measurement": "Multiples of increased sweetness to minor-type brazzein", "setting": "human sense of taste", "result": 3.3}, {"measurement": "Minimum stimulation level in which one senses sweetness for first time", "setting": "human sense of taste", "result": 150, "unit": "μg/100 ml"}, {"measurement": "Sweetness ratios of sucrose (1 g/100 ml) to primary brazzein variants (minor-type brazzein: 2000)", "setting": "human sense of taste", "result": "6,600"}, {"measurement": "Thermal stability (relative activity after heat treatment)", "setting": "[2]", "result": "maintained their thermal stabilities"}]}
{"molecule": "E40R: primary brazzein variant: Glu at position 40 of minor-type brazzein substituted with Arg (DKCKKVYENYPVSKCQLANQCNYDCKLRKHARSGECFYDRKRNLQCICDYCEY; Brazzein(E40R)) [Brazzein E40R]", "values": [{"measurement": "Multiples of increased sweetness to minor-type brazzein", "setting": "human sense of taste", "result": 2}, {"measurement": "Minimum stimulation level in which one senses sweetness for first time", "setting": "human sense of taste", "result": 250, "unit": "μg/100 ml"}, {"measurement": "Sweetness ratios of sucrose (1 g/100 ml) to primary brazzein variants (minor-type brazzein: 2000)", "setting": "human sense of taste", "result": "4,000"}, {"measurement": "Thermal stability (relative activity after heat treatment)", "setting": "[2]", "result": "maintained their thermal stabilities"}]}
{"molecule": "H30R: primary brazzein variant: His at position 30 of minor-type brazzein substituted with Arg (DKCKKVYENYPVSKCQLANQCNYDCKLRKRARSGECFYDEKRNLQCICDYCEY; Brazzein(H30R)) [Brazzein H30R]", "values": [{"measurement": "Multiples of increased sweetness to minor-type brazzein", "setting": "human sense of taste", "result": 3.3}, {"measurement": "Minimum stimulation level in which one senses sweetness for first time", "setting": "human sense of taste", "result": 150, "unit": "μg/100 ml"}, {"measurement": "Sweetness ratios of sucrose (1 g/100 ml) to primary brazzein variants (minor-type brazzein: 2000)", "setting": "human sense of taste", "result": "6,600"}, {"measurement": "Thermal stability (relative activity after heat treatment)", "setting": "[2]", "result": "maintained their thermal stabilities"}]}
{"molecule": "Monellin", "values": [{"measurement": "Sweetness relative to sugar (sucrose)", "setting": "sweetness", "result": "3,000 times"}, {"measurement": "Thermal stability", "setting": "[1]", "result": "low"}]}
{"molecule": "minor-type brazzein: wild-type minor type of brazzein, 53 amino acid residues without pyroglutamic acid at the amino-terminal region (DKCKKVYENYPVSKCQLANQCNYDCKLRKHARSGECFYDEKRNLQCICDYCEY; ends and bridges not checked; cysteine pairing not given here) [reference compound]", "values": [{"measurement": "Minimum stimulation level in which one senses sweetness for first time", "setting": "human sense of taste", "result": 500, "unit": "μg/100 ml"}, {"measurement": "Sweetness ratios of sucrose (1 g/100 ml) to primary brazzein variants (minor-type brazzein: 2000)", "setting": "human sense of taste", "result": 2000}, {"measurement": "Sweetness relative to the major type of brazzein", "setting": "sweetness; Assadi-Porter et al. 2000", "result": "approximately twice"}]}
